In article PMC10537618, “Effect of Betanin, the Major Pigment of Red Beetroot (Beta vulgaris L.), on the Activity of Recombinant Human Cytochrome P450 Enzymes” (Pharmaceuticals, 2023):

Legend:
recombinant CYP1A2 = target: T1, recombinant CYP1A2 (Homo sapiens, UniProt P05177); experiment: Vivid fluorescence-based CYP inhibition assay, recombinant CYP1A2 (EOMCC substrate); type: in vitro ADME
T1 construct: purchased Thermo Fisher Scientific; host or cells: insect cells (microsomes)
T1 sequence (P05177 2-516 limits assumed): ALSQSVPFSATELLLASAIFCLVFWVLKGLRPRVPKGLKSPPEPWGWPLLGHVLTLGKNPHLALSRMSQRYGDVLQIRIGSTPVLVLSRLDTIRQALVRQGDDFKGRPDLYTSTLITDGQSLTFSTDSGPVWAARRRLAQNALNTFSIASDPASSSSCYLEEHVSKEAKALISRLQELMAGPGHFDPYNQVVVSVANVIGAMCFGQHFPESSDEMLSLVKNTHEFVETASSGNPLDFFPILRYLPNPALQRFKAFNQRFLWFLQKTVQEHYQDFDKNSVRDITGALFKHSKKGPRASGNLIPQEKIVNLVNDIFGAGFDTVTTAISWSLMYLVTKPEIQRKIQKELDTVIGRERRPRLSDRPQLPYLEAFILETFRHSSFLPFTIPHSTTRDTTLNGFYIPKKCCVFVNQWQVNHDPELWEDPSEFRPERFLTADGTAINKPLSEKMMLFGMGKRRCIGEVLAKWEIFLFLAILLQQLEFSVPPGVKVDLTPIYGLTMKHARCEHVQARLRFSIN
Protocol: (§1) We measured the activity of six representative CYPs using Vivid CYP screening kits. CYP activity was evaluated using recombinant CYPs and specific fluorescent substrates 7-ethoxymethoxy-3-cyanocoumarin (EOMCC) and 7-benzyloxymethyloxy-3-cyanocoumarin (BOMCC).
(§2) Raw fluorescence data were normalized against control activity values of 0% and 100%. Control 0% activity values were obtained from samples consisting of 0.5% DMSO and the enzyme solvent buffer without the enzyme. Maximum 100% activity values were expressed as a reaction with only enzymes and 0.5% DMSO, with no other drugs. Furafylline (FRL) 100 μM, bupropion (BPP) 50 μM, omeprazole (OPZ) 50 μM, fluvoxamine (FVX) 100 μM, quinidine (QND) 50 μM, and ketoconazole (KCZ) 1 μM were used as positive controls for the fluorescence-based assay. […] Raw data were normalized using the software GraphPad Prism 8.02. The data represent the mean ± SEM of triplicate independent experiments.
(§3) Fluorescence-based assays were performed according to the manufacturer’s instructions. […] The plates were immediately measured in the kinetic mode using a SpectraMax M3 Multi-Mode Microplate Reader (Bio-Rad, Hercules, CA, USA). […] The signals were measured using a SpectraMax M3 Multi-Mode Microplate Reader (Bio-Rad). Data fitting generated a sigmoidal dose–response curve with values calculated using Microsoft Excel 2016 (Microsoft Corporation, Redmond, WA, USA).

recombinant CYP2B6 = target: T2, recombinant CYP2B6 (Homo sapiens, UniProt P20813); experiment: Vivid fluorescence-based CYP inhibition assay, recombinant CYP2B6 (BOMCC substrate); type: in vitro ADME
T2 construct: purchased Thermo Fisher Scientific; host or cells: insect cells (microsomes)
T2 sequence (P20813 1-491): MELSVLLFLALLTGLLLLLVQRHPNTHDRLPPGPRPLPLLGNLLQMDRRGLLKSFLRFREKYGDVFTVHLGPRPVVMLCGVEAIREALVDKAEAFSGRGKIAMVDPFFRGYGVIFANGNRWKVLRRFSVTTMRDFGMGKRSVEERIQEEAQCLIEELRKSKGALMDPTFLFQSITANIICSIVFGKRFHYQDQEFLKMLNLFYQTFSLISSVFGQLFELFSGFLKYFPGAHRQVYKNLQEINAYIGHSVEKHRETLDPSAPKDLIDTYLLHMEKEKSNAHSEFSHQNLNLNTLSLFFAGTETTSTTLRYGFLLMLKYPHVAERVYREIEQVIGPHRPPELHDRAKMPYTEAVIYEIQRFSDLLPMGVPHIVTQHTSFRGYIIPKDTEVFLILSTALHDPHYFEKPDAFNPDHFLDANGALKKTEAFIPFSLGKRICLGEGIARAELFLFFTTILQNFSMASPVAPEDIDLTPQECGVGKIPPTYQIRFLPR
Protocol: as §1, §2, §3

recombinant CYP2C9 = target: T3, recombinant CYP2C9 (Homo sapiens, UniProt P11712); experiment: Vivid fluorescence-based CYP inhibition assay, recombinant CYP2C9 (BOMCC substrate); type: in vitro ADME
T3 construct: purchased; host or cells: insect cells (microsomes)
T3 sequence (P11712 whole entry): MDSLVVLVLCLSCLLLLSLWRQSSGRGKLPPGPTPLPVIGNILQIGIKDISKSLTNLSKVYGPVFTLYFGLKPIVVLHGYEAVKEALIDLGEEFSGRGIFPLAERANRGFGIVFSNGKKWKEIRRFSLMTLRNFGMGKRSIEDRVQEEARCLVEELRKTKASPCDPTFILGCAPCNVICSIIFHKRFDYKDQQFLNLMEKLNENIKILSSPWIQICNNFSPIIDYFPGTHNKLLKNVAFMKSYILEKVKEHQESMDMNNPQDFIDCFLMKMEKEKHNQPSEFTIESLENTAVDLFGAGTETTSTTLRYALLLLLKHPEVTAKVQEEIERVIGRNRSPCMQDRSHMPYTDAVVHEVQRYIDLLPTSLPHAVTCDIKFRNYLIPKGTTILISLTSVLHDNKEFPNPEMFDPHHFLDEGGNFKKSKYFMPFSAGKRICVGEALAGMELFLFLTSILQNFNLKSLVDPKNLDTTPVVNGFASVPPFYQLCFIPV
Protocol: as §1, §2, §3

recombinant CYP2C19 = target: T4, recombinant CYP2C19 (Homo sapiens, UniProt P33261); experiment: Vivid fluorescence-based CYP inhibition assay, recombinant CYP2C19 (EOMCC substrate); type: in vitro ADME
T4 construct: purchased Thermo Fisher Scientific; host or cells: insect cells (microsomes)
T4 sequence (P33261 whole entry): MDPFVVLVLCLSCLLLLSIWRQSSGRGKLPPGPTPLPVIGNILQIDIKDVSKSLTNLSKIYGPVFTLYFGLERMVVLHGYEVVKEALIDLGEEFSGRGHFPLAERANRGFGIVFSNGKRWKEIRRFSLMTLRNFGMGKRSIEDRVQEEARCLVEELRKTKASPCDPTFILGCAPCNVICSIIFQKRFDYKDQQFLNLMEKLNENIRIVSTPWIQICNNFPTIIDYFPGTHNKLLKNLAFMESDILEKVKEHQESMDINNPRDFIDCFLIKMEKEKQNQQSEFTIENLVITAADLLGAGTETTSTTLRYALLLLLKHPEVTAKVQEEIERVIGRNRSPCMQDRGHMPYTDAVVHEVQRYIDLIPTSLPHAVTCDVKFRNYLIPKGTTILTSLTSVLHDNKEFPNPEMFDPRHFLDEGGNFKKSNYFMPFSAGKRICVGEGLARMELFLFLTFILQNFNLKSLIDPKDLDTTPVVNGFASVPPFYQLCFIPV
Protocol: as §1, §2, §3

recombinant CYP2D6 = target: T5, recombinant CYP2D6 (Homo sapiens, UniProt P10635); experiment: Vivid fluorescence-based CYP inhibition assay, recombinant CYP2D6 (EOMCC substrate); type: in vitro ADME
T5 construct: purchased Thermo Fisher Scientific; host or cells: insect cells (microsomes)
T5 sequence (P10635 whole entry): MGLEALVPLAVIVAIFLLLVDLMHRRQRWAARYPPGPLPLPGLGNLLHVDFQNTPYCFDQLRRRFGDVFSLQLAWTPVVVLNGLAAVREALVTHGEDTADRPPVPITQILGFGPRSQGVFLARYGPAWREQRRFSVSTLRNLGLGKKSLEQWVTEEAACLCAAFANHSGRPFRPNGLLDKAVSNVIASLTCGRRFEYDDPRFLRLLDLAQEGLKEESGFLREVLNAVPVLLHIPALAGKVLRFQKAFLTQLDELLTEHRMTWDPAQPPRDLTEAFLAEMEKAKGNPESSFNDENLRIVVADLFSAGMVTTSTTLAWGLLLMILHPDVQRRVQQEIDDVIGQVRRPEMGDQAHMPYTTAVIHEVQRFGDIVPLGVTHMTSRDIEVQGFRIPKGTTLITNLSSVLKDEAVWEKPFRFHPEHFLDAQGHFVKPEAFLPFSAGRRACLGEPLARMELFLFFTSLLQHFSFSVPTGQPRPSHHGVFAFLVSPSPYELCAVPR
Protocol: as §1, §2, §3

recombinant CYP3A4 [1] = target: T6, recombinant CYP3A4 (Homo sapiens, UniProt P08684); experiment: Vivid fluorescence-based CYP inhibition assay, recombinant CYP3A4 (BOMCC substrate); type: in vitro ADME
T6 construct: purchased Thermo Fisher Scientific; host or cells: insect cells (microsomes)
T6 sequence (P08684 2-503 limits assumed): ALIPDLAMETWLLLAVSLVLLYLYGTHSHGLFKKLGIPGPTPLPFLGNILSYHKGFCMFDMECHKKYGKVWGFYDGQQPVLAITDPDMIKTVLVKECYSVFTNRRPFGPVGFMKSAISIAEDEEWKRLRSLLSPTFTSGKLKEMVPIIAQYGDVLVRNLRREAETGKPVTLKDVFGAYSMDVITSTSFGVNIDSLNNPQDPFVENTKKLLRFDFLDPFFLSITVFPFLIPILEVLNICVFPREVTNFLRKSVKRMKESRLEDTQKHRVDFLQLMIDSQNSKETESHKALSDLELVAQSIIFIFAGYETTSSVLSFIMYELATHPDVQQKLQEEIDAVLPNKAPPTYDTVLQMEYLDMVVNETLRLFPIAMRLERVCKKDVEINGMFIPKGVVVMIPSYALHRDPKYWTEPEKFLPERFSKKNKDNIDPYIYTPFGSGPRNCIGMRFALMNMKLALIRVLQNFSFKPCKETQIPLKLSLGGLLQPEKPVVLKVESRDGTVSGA
Protocol: as §1, §2
Fluorescence-based assays were performed according to the manufacturer’s instructions. Control, CYP positive control inhibitor, and betanin (0.1–100 μM) solutions were prepared by diluting the compounds with Vivid CYP Reaction Buffer (Table 1). Next, 40 µL of control, CYP positive control inhibitor, or betanin solution was dispensed into the wells of black 96-well plates. A Master Pre-Mix was prepared by diluting the P450 BAC-ULOSOMES Plus Reagent and Vivid Regeneration System in Vivid CYP Reaction Buffer. The P450 BACULOSOMES Plus Reagents are microsomes made from insect cells that express human cytochrome P450 reductase and CYP450 isozyme. […] The plates were immediately measured in the kinetic mode using a SpectraMax M3 Multi-Mode Microplate Reader (Bio-Rad, Hercules, CA, USA). […] The signals were measured using a SpectraMax M3 Multi-Mode Microplate Reader (Bio-Rad). Data fitting generated a sigmoidal dose–response curve with values calculated using Microsoft Excel 2016 (Microsoft Corporation, Redmond, WA, USA).

recombinant CYP3A4 [2] = target: T6, recombinant CYP3A4; experiment: CYP3A4 enzyme kinetics, Lineweaver–Burk plot and secondary plot for Ki; type: in vitro ADME
Protocol: Next, we measured the kinetics of betanin metabolization by recombinant CYP3A4. Using the Michaelis constant (Km) and Vmax, we generated a Lineweaver–Burk plot. To obtain inhibition constant (Ki) values, various concentrations of BOMCC were incubated in the absence or presence of 3–100 μM betanin.
Data were obtained from 30 min incubation with BOMCC (1–20 μM) in the absence or presence of betanin (3–100 μM). All data are represented as mean ± SD from at least three independent experiments.
CYP activity was measured using Vivid CYP screening kits supplied with P450 BACULOSOMES Plus Reagent containing each CYP. The assays were conducted in the absence or presence of betanin and different concentrations of specific substrates. BOMCC was used as a specific substrate for CYP3A4. Lineweaver–Burk plots were generated for the determination of CYP activity in the absence or presence of betanin.

HepG2 cells = experiment: MTT cell viability assay; type: cell-based, human; details: 0.1–100 μM, 48 h
Protocol: Human hepatocellular carcinoma (HepG2) cells were cultured in Minimum Essential Medium (MEM) supplemented with 10% fetal bovine serum and 1% penicillin–streptomycin. HepG2 cells were maintained at 37 °C in a humidified environment with a 5% CO₂ atmosphere. The culture medium was replaced every day before measuring CYP activity. HepG2 cells were grown in opaque 96-well plates at a density of 1 × 10^4 cells/well. After 24 h, the cells were added with the desired concentration of betanin for 48 h. Next, 20 µL of 5 mg/mL MTT solution in PBS was added to each well and incubated for 2 h. After removing the supernatant, 100 µL of DMSO was dispensed into each well and the plate was incubated for 10 min.

CYP1A2 = experiment: P450-Glo luminescence-based CYP induction assay in HepG2 cells, CYP1A2 (Luciferin-1A2); details: betanin 0.1–100 μM, versus control (DMSO 0.5%)
Source text: (§4) Results are mean ± SEM of triplicate independent experiments.

CYP2B6 = experiment: P450-Glo luminescence-based CYP induction assay in HepG2 cells, CYP2B6 (Luciferin-2B6); type: in vitro ADME, human; parameters: induction of CYP2B6 activity in HepG2 cells by positive control inducer: dose or concentration left out as unconfirmed
Protocol: CYP enzyme activity was measured using P50-Glo assay kits. Omeprazole (OPZ) 1 mM and rifampicin (RFC) 1 and 10 mM were used as positive controls for the luminescence-based assay. The data are expressed as a percentage of the control (DMSO 0.5%). Results are mean ± SEM of triplicate independent experiments.
HepG2 cells were seeded at a concentration of 3 × 10^4 cells per well for CYP1A2 and 1 × 10^5 cells per well for CYP2B6 and CYP2C9 in opaque white 96-well plates. After 24 h of incubation, the cells were combined with 0.5% DMSO (vehicle control), 1 mM omeprazole, 10 mM rifampicin, or 0.1–100 μM betanin for 48 h. The supernatant was then switched to fresh medium containing the same concentration of the compound and incubated for an additional 24 h. To measure luminescence, the culture medium was replaced with fresh medium containing the luciferin substrate and incubated at 37 °C in a 5% CO₂ incubator (Table 2). Next, 50 µL of each well was transferred to a well of a fresh 96-well opaque white cell culture plate and mixed with 50 µL of CYP Luciferin Detection Reagent at room temperature to initiate the enzymatic reaction. After incubation for 20 min, luminescence was measured using a SpectraMax M3 Multi-Mode Microplate Reader (Bio-Rad).

CYP2C9 = experiment: P450-Glo luminescence-based CYP induction assay in HepG2 cells, CYP2C9 (Luciferin-H); type: in vitro ADME, human; details: betanin 0.1–100 μM, versus control (DMSO 0.5%)
Source text: as §4

[3] = at any of the tested dosages (0.1–100 μM)
[4] = fluorescence-based, EOMCC substrate, betanin 0.1–100 μM
[5] = fluorescence-based, BOMCC substrate, betanin 0.1–100 μM

| Compound | inhibitory effect on recombinant CYP1A2 (recombinant CYP1A2; [3]) [%] | IC50 (recombinant CYP1A2; [4]) [µM] | inhibitory effect on recombinant CYP2B6 (recombinant CYP2B6; [3]) [%] | IC50 (recombinant CYP2B6; [5]) [µM] | inhibitory effect on recombinant CYP2C9 (recombinant CYP2C9; [3]) [%] | IC50 (recombinant CYP2C9; [5]) [µM] | inhibitory effect on recombinant CYP2C19 (recombinant CYP2C19; [3]) [%] | IC50 (recombinant CYP2C19; [4]) [µM] | inhibitory effect on recombinant CYP2D6 (recombinant CYP2D6; 100 μM) [%] | IC50 (recombinant CYP2D6; [4]) [µM] | inhibition of recombinant CYP3A4 (recombinant CYP3A4 [1]; 30 μM) [%] | inhibition of recombinant CYP3A4 (recombinant CYP3A4 [1]; 100 μM) [%] | IC50 (recombinant CYP3A4 [1]; fluorescence-based, BOMCC substrate, betanin 0.1–100 μM, 95% CI 19.09–23.06 μM) [µM] | Ki (recombinant CYP3A4 [2]; 1–20 μM BOMCC, 3, 10, 30 and 100 μM betanin, 30 min incubation, read-out: Ki (inhibition constant) for CYP3A4) [µM] | mode of inhibition of CYP3A4 (recombinant CYP3A4 [2]; Lineweaver–Burk and secondary plots) | cytotoxicity toward HepG2 cells (MTT) (HepG2 cells) | induction effect on CYP1A2 activity in HepG2 cells (CYP1A2) | induction effect on CYP2B6 activity in HepG2 cells (CYP2B6; betanin 0.1–100 μM, versus control (DMSO 0.5%)) | induction effect on CYP2C9 activity in HepG2 cells (CYP2C9) | induction of CYP2B6 activity in HepG2 cells by positive control inducer (CYP2B6; compared to the control group) |
| --- | --- | --- | --- | --- | --- | --- | --- | --- | --- | --- | --- | --- | --- | --- | --- | --- | --- | --- | --- | --- |
| O=C(O)C1=C/C(=C/C=[N+]2/c3cc(O)c(OC4OC(CO)[C@@H](O)C(O)C4O)cc3CC2C(=O)[O-])CC(C(=O)O)N1 (stereo in doubt) [betanin, Betanin] | ≤ 30 | > 100 | ≤ 30 | > 100 | ≤ 30 | > 100 | ≤ 30 | > 100 | 33 | > 100 | 58 | 87 | 21 | 19.5 | competitive inhibitor | no cytotoxicity | did not show any induction effect | did not show any induction effect | did not show any induction effect |  |
| CO[C@H]1/C=C/O[C@@]2(C)Oc3c(C)c(O)c4c(O)c(c(/C=N/N5CCN(C)CC5)c(O)c4c3C2=O)NC(=O)/C(C)=C\C=C\[C@H](C)[C@H](O)[C@@H](C)[C@@H](O)[C@@H](C)[C@H](OC(C)=O)[C@@H]1C [rifampin, reference compound] |  |  |  |  |  |  |  |  |  |  |  |  |  |  |  |  |  |  |  | significantly induced |
